Drawing on patent US12653911B2, “Stimuli-responsive nanoparticles for biomedical applications” (The Brigham and Women's Hospital, Inc., priority 2016, dated 2026), this text covers pKa of polymer and pKa for eleven substances.

The term pKa denotes the negative logarithm of the acid dissociation constant.

The data set in a line: Acid-base titration of the polymers (pKa). The class given is physicochemical. As to the method:
Meo-PEG-b-P(DPA-co-GMA-TEPA-C14) was dispersed in deionized water, and a concentrated HCl aqueous solution was added until complete dissolution of the copolymer (1 mg/mL). Subsequently, 1 M NaOH aqueous solution was added in 1-5 μL increments. After each addition, the solution was constantly stirred for 3 min, and the solution pH was measured using a pH meter.
Meo-PEG-b-P(DPA-co-GMA-Rn) was dispersed in deionized water, and a concentrated HCl aqueous solution was added until the copolymer was completely dissolved (1 mg/mL). Subsequently, 1 M NaOH aqueous solution was added in 1-5 μL increments. After each addition, the solution was constantly stirred for 3 min, and the solution pH was measured using a pH meter.
Subsequently, 1 M NaOH aqueous solution was added in 1-5 μL increments. After each addition, the solution was constantly stirred for 3 min, and the solution pH was measured using a pH meter.
“Meo-PEG-b-P(DPA-co-GMA-TEPA-C14) [PDPA50]” displayed a pKa of polymer of 6.31.

For “Meo-PEG-b-P(DPA-co-GMA-TEPA-C14) [PDPA60]”, the pKa of polymer turned out to be 6.29. Meo-PEG-b-P(DPA-co-GMA) [PDPA50-GMA5]: the pKa is 6.31. “Meo-PEG-b-P(DPA-co-GMA-TEPA-C14) [PDPA40]” yielded a pKa of polymer of 6.34. In turn, “Meo-PEG-b-P(DPA-co-GMA-TEPA-C14) [PDPA70]” registered a pKa of polymer of 6.26. Meo-PEG-b-P(DPA-co-GMA) [PDPA70-GMA5] returned a pKa of 6.26.

On to Meo-PEG-b-P(DPA-co-GMA) [PDPA100-GMA5], for which the pKa was found to be 6.21. As for “Meo-PEG113-b-P(DPA80-co-GMA5) [PDPA80-GMA5]”, the pKa was 6.24. Turning to Meo-PEG-b-P(DPA-co-GMA) [PDPA40-GMA5], the pKa is reported as 6.34. On the same count and under the same terms, the value for Meo-PEG-b-P(DPA-co-GMA) [PDPA60-GMA5] was 6.29.

With Meo-PEG-b-P(DPA-co-GMA-R10), the pKa is on record as 6.31. The pKa values of the last two substances are within 0.2 log units of each other.
